According to PubChem BioAssay (NCI):
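In this assay, cells in 96-well plates receive the compound at five concentrations for 48 hours. Endpoints are linearly interpolated between the surrounding concentrations. At the GI50, growth is halved. TGI is the concentration that stops growth completely.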

What was measured:
Experiment in all cases: inhibition of tumour cell growth, NCI panel, 48 h
[1] = tested on: 786-0 renal
[2] = tested on: A498 renal
[3] = tested on: A549 NSCLC
[4] = tested on: ACHN renal
[5] = tested on: BT-549 breast
[6] = tested on: CAKI-1 renal
[7] = tested on: CCRF-CEM leukemia
[8] = tested on: COLO 205 colon
[9] = tested on: DU-145 prostate
[10] = tested on: EKVX NSCLC
[11] = tested on: HCC-2998 colon
[12] = tested on: HCT-116 colon
[13] = tested on: HCT-15 colon
[14] = tested on: HL-60(TB) leukemia
[15] = tested on: HOP-62 NSCLC
[16] = tested on: HOP-92 NSCLC
[17] = tested on: HS 578T breast
[18] = tested on: HT29 colon
[19] = tested on: IGROV1 ovarian
[20] = tested on: K-562 leukemia
[21] = tested on: KM12 colon
[22] = tested on: LOX IMVI melanoma
[23] = tested on: M14 melanoma
[24] = tested on: MALME-3M melanoma
[25] = tested on: MCF7 breast
[26] = tested on: MDA-MB-231 breast
[27] = tested on: MDA-MB-435
[28] = tested on: MOLT-4 leukemia
[29] = tested on: NCI-H226 lung
[30] = tested on: NCI-H23 lung
[31] = tested on: NCI-H460 lung
[32] = tested on: NCI-H522 lung
[33] = tested on: NCI/ADR-RES ovarian
[34] = tested on: OVCAR-3 ovarian
[35] = tested on: OVCAR-4 ovarian
[36] = tested on: OVCAR-5 ovarian
[37] = tested on: OVCAR-8 ovarian
[38] = tested on: PC-3 prostate
[39] = tested on: RPMI-8226 leukemia
[40] = tested on: RXF 393 renal
[41] = tested on: SF-268 CNS
[42] = tested on: SF-295 CNS
[43] = tested on: SF-539 CNS
[44] = tested on: SK-MEL-2 melanoma
[45] = tested on: SK-MEL-28 melanoma
[46] = tested on: SK-MEL-5 melanoma
[47] = tested on: SK-OV-3 ovarian
[48] = tested on: SN12C renal
[49] = tested on: SNB-19 CNS
[50] = tested on: SNB-75 CNS
[51] = tested on: SR leukemia
[52] = tested on: SW-620 colon
[53] = tested on: T-47D breast
[54] = tested on: TK-10 renal
[55] = tested on: U251 CNS
[56] = tested on: UACC-257 melanoma
[57] = tested on: UACC-62 melanoma
[58] = tested on: UO-31 renal

In the case of `O=C(N/N=C/c1ccc([N+](=O)[O-])s1)c1[nH]c2ccc(Br)cc2c1-c1ccccc1`, the GI50 [1] is reported as 1300 nM, the TGI [1] is reported as 19200 nM and the GI50 [2] is reported as > 34700 nM. The TGI [2] was > 92100 nM, the GI50 [3] was 1070 nM and the TGI [3] was 12900 nM. It also gave a GI50 [4] of 883 nM, a GI50 [5] of 747 nM and a TGI [5] of 2670 nM. For the same compound, the GI50 [6] was 1510 nM, the TGI [6] was > 26100 nM and the GI50 [7] was 1220 nM. The TGI [7] was 99600 nM, the GI50 [8] was 578 nM and the TGI [8] was 1140 nM. For the same compound, the GI50 [9] was 1140 nM, the TGI [9] was > 55400 nM and the GI50 [10] was 1720 nM. For the same compound, the TGI [10] was 8290 nM, the GI50 [11] was 787 nM and the TGI [11] was 2120 nM. For the same compound, the GI50 [12] was 816 nM, the TGI [12] was 4700 nM and the GI50 [13] was 706 nM. It also gave a TGI [13] of 2720 nM, a GI50 [14] of 723 nM and a TGI [14] of 1940 nM. The GI50 [15] was 1070 nM, the TGI [15] was 6970 nM and the GI50 [16] was 851 nM. For the same compound, the TGI [16] was 4610 nM, the GI50 [17] was 943 nM and the TGI [17] was 12900 nM. The GI50 [18] was 858 nM, the TGI [18] was 2800 nM and the GI50 [19] was 932 nM. For the same compound, the TGI [19] was > 50900 nM, the GI50 [20] was 365 nM and the TGI [20] was 14200 nM. The GI50 [21] was 1080 nM, the TGI [21] was 5470 nM and the GI50 [22] was 487 nM. It also gave a TGI [22] of 12700 nM, a GI50 [23] of 627 nM and a TGI [23] of 2030 nM. For the same compound, the GI50 [24] was 800 nM, the TGI [24] was 4500 nM and the GI50 [25] was 741 nM. For the same compound, the TGI [25] was > 32400 nM, the GI50 [26] was 881 nM and the TGI [26] was 2850 nM. It also gave a GI50 [27] of 323 nM, a TGI [27] of 918 nM and a GI50 [28] of 1070 nM. It also gave a TGI [28] of 16600 nM, a GI50 [29] of 716 nM and a TGI [29] of 2780 nM. The GI50 [30] was 1180 nM, the TGI [30] was 18800 nM and the GI50 [31] was 820 nM. For the same compound, the TGI [31] was 3030 nM, the GI50 [32] was 115 nM and the TGI [32] was 535 nM. For the same compound, the GI50 [33] was 458 nM, the GI50 [34] was 1060 nM and the TGI [34] was 9860 nM. For the same compound, the GI50 [35] was 1630 nM, the TGI [35] was > 46900 nM and the GI50 [36] was 1140 nM. It also gave a TGI [36] of 27200 nM, a GI50 [37] of 756 nM and a TGI [37] of 2080 nM. It also gave a GI50 [38] of 967 nM, a GI50 [39] of 912 nM and a TGI [39] of 8560 nM. It also gave a GI50 [40] of 354 nM, a TGI [40] of 9220 nM and a GI50 [41] of 1840 nM. The TGI [41] was > 100000 nM, the GI50 [42] was 596 nM and the TGI [42] was 12200 nM. For the same compound, the GI50 [43] was 515 nM, the TGI [43] was 1510 nM and the GI50 [44] was 769 nM. For the same compound, the TGI [44] was 2540 nM, the GI50 [45] was 995 nM and the TGI [45] was > 34200 nM. The GI50 [46] was 605 nM, the TGI [46] was 1290 nM and the GI50 [47] was 1690 nM. For the same compound, the TGI [47] was > 53500 nM, the GI50 [48] was 885 nM and the TGI [48] was 3130 nM. For the same compound, the GI50 [49] was 961 nM, the TGI [49] was > 32300 nM and the GI50 [50] was 320 nM. For the same compound, the TGI [50] was 5710 nM, the GI50 [51] was 391 nM and the TGI [51] was 10600 nM. The GI50 [52] was 768 nM, the TGI [52] was 8530 nM and the GI50 [53] was 2350 nM. For the same compound, the TGI [53] was > 91300 nM, the GI50 [54] was 2970 nM and the TGI [54] was > 49800 nM. It also gave a GI50 [55] of 716 nM, a TGI [55] of 3030 nM and a GI50 [56] of 916 nM. It also gave a TGI [56] of 9150 nM, a GI50 [57] of 401 nM and a TGI [57] of 3980 nM. The GI50 [58] was 1040 nM and the TGI [58] was > 33400 nM.
